In ChEMBL document CHEMBL1141099, “Discovery of N-(2,6-dimethylphenyl)-substituted semicarbazones as anticonvulsants: hybrid pharmacophore-based design” (2005):

How the values were obtained:
Mus musculus [1] = experiment: Post treatment activity score for CNS study using a actophotometer at a dose of 100 mg/Kg after 0.5 hr when given i.p., in mice (No. of animals 6); Control (24h before) 281
Rattus norvegicus [2] = experiment: Number of rats protected at a dose of 30 mg/Kg when given oral at 1 hr upon maximal electroshock seizure; Total number of rats = 4; format: functional
[3] = target: 4-aminobutyrate aminotransferase, mitochondrial (Rattus norvegicus) (UniProt P50554); experiment: In vitro percentage inhibition activity against GABA-T enzyme at a concentration of 0.625 uM after 4.5 h
Rattus norvegicus [4] = species: Rattus norvegicus; experiment: Ex vitro percentage inhibition activity against GABA-T enzyme at a concentration of 1.25 uM after 4.5 h; format: functional
Rattus norvegicus [5] = experiment: Number of rats protected at a dose of 30 mg/Kg when given oral at 2 hr upon maximal electroshock seizure; Total number of rats = 4; format: functional
Mus musculus [6] = experiment: Minimum dose required for anticonvulsant activity when given i.p., at 0.5 hr in mice upon subcutaneous pentylenetetrazole seizure; format: functional
Mus musculus [7] = experiment: Minimum dose required for anticonvulsant activity when given i.p., at 0.5 hr in mice upon subcutaneous strychnine seizure; format: functional
Rattus norvegicus [8] = experiment: Effect on GABA level in rat whole brain concentration after 7 days post-treatment at a dose of 30 mg/Kg when given orally; Control 50.5; format: functional
Rattus norvegicus [9] = experiment: Number of rats protected at a dose of 30 mg/Kg when given oral at 0.25 hr upon maximal electroshock seizure; Total number of rats = 4; format: functional
Rattus norvegicus [10] = experiment: Number of rats protected at a dose of 30 mg/Kg when given oral at 0.5 hr upon maximal electroshock seizure; Total number of rats = 4; format: functional
Mus musculus [11] = experiment: Post treatment activity score for CNS study using a actophotometer at a dose of 100 mg/Kg after 1 hr when given i.p., in mice (No. of animals 6); Control (24h before) 281
Mus musculus [12] = experiment: Minimum dose required for anticonvulsant activity when given i.p., at 0.5 hr in mice upon maximal electroshock seizure; format: functional
Rattus norvegicus [13] = experiment: Effect on GABA level in rat whole brain concentration after 2 hr post-treatment at a dose of 100 mg/Kg when given i.p.; Control 48.4; format: functional
[14] = target: 4-aminobutyrate aminotransferase, mitochondrial (Rattus norvegicus) (UniProt P50554); experiment: In vitro percentage inhibition activity against GABA-T enzyme at a concentration of 0.625 uM after 3 h
Rattus norvegicus [15] = experiment: Number of rats protected at a dose of 30 mg/Kg when given oral at 4 hr upon maximal electroshock seizure; Total number of rats = 4; format: functional
Rattus norvegicus [16] = experiment: Effective dose required for anticonvulsant activity when given i.p., at 0.5 hr in rat upon maximal electroshock seizure; format: functional; conditions: ip
Mus musculus [17] = experiment: Mean sleeping time evaluated for CNS study using the pentobarbital-induced narcosis model at a dose of 100 mg/Kg when given i.p., in mice (No. of animals 6)
Rattus norvegicus [18] = species: Rattus norvegicus; experiment: Ex vitro percentage inhibition activity against GABA-T enzyme at a concentration of 1.25 uM after 6 h; format: functional
Rattus norvegicus [19] = experiment: Toxic dose observed for anticonvulsant activity when given i.p., at 0.5 hr in rat upon neurotoxicity seizure; format: functional; conditions: ip
Rattus norvegicus [20] = species: Rattus norvegicus; experiment: Ex vitro percentage inhibition activity against GABA-T enzyme at a concentration of 1.25 uM after 3 h; format: functional
Mus musculus [21] = experiment: Post treatment immobility time for CNS study using Porsolt's swimpool test at a dose of 100 mg/Kg after 1 hr when given i.p., in mice (No. of animals 6); Control (24h before) 132
Mus musculus [22] = experiment: Minimum dose required for anticonvulsant activity when given i.p., at 4 hr in mice upon maximal electroshock seizure; format: functional
[23] = target: 4-aminobutyrate aminotransferase, mitochondrial (Rattus norvegicus) (UniProt P50554); experiment: In vitro percentage inhibition activity against GABA-T enzyme at a concentration of 0.625 uM after 6 h
Rattus norvegicus [24] = species: Rattus norvegicus; experiment: Protective index between effective dose and toxic dose in rat; format: functional
Mus musculus [25] = experiment: Minimum dose required for anticonvulsant activity when given i.p., at 0.5 hr in mice upon neurotoxicity seizure using rotarod test; format: functional
Rattus norvegicus [26] = species: Rattus norvegicus; experiment: Ex vitro percentage inhibition activity against GABA-T enzyme at a concentration of 5 uM after 6 h; format: functional
Rattus norvegicus [27] = experiment: After discharge duration time when before administered in rat 1 at dose 100 mg/Kg when given i.p., upon preliminary hippocampal-kindling screen; Prodrug time 26-42 s; format: functional, Hippocampus
Rattus norvegicus [28] = experiment: Seizure score after administration in rat 1 at dose 100 mg/Kg when given i.p., upon preliminary hippocampal-kindling screen; format: functional, Hippocampus
Rattus norvegicus [29] = experiment: After discharge duration time when after administered in rat 1 at dose 100 mg/Kg when given i.p., upon preliminary hippocampal-kindling screen; format: functional, Hippocampus
Rattus norvegicus [30] = experiment: Seizure score before administration in rat 2 at dose 100 mg/Kg when given i.p., upon preliminary hippocampal-kindling screen; […]; format: functional, Hippocampus
Rattus norvegicus [31] = experiment: After discharge duration time when before administered in rat 2 at dose 100 mg/Kg when given i.p., upon preliminary hippocampal-kindling screen; Prodrug time 11-39 s; format: functional, Hippocampus
Rattus norvegicus [32] = species: Rattus norvegicus; experiment: Ex vitro percentage inhibition activity against GABA-T enzyme at a concentration of 5 uM after 3 h; format: functional
Mus musculus [33] = experiment: Post treatment activity score for CNS study using a actophotometer at a dose of 100 mg/Kg after 1 hr when given i.p., in mice (No. of animals 6); Control (24h before) 202
Rattus norvegicus [34] = species: Rattus norvegicus; experiment: Ex vitro percentage inhibition activity against GABA-T enzyme at a concentration of 5 uM after 4.5 h; format: functional
Rattus norvegicus [35] = experiment: Seizure score after administration in rat 2 at dose 100 mg/Kg when given i.p., upon preliminary hippocampal-kindling screen; format: functional, Hippocampus
Mus musculus [36] = experiment: Minimum dose required for anticonvulsant activity when given i.p., at 2 hr in mice upon subcutaneous strychnine seizure; format: functional
Rattus norvegicus [37] = experiment: After discharge duration time when after administered in rat 2 at dose 100 mg/Kg when given i.p., upon preliminary hippocampal-kindling screen; format: functional, Hippocampus
Mus musculus [38] = experiment: Post treatment activity score for CNS study using a actophotometer at a dose of 100 mg/Kg after 0.5 hr when given i.p., in mice (No. of animals 6); Control (24h before) 202
Rattus norvegicus [39] = experiment: Seizure score before administration in rat 1 at dose 100 mg/Kg when given i.p., upon preliminary hippocampal-kindling screen; format: functional, Hippocampus
Rattus norvegicus [40] = experiment: Toxic dose observed for anticonvulsant activity when given i.p., at 1 h in rat upon neurotoxicity seizure; format: functional; conditions: ip
Mus musculus [41] = experiment: Post treatment immobility time for CNS study using Porsolt's swimpool test at a dose of 100 mg/Kg after 1 hr when given i.p., in mice (No. of animals 6); Control (24h before) 173
Rattus norvegicus [42] = experiment: Effective dose required for anticonvulsant activity when given i.p., at 1 hr in rat upon maximal electroshock seizure; format: functional; conditions: ip

Chain of 4-aminobutyrate aminotransferase, mitochondrial (Rattus norvegicus) (P50554 28-500 limits assumed): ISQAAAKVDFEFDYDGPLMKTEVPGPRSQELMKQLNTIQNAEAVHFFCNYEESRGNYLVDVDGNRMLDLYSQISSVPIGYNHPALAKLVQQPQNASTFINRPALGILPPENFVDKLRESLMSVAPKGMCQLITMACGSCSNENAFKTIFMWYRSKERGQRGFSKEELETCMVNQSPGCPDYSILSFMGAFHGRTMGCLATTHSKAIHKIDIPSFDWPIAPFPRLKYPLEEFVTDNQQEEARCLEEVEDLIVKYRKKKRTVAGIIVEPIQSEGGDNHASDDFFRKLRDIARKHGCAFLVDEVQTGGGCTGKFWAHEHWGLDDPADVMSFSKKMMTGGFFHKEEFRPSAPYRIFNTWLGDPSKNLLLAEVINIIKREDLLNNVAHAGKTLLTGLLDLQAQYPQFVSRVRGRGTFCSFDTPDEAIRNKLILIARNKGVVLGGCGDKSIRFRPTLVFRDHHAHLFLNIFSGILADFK

SMILES | Activity (Rattus norvegicus [2]) | inhibition [3] | Activity (Rattus norvegicus [5]) | PTZ seizure (Mus musculus [6]) | STY seizure (Mus musculus [7]) | Activity (Rattus norvegicus [8]) | Activity (Rattus norvegicus [9]) | Activity (Rattus norvegicus [10]) | MES (Mus musculus [12]) | Activity (Rattus norvegicus [13]) | inhibition [14] | Activity (Rattus norvegicus [15]) | Time (Mus musculus [17]) | MES (Mus musculus [22]) | inhibition [23] | PI (Rattus norvegicus [24]) | NT (Mus musculus [25]) | other results
Cc1cccc(C)c1NC(=O)N/N=C/c1ccccc1[N+](=O)[O-] | 2 | 0% | 2 | 300 mg/kg | 100 mg/kg | 81.6 ug/100mg of tissue | 2 | 2 | 300 mg/kg | 84.7 ug/100mg of tissue | 53% | 2 | 141 min | 300 mg/kg | 40% | >4.3 | 300 mg/kg | Activity (Mus musculus [1]): 177; Inhibition (Rattus norvegicus [4]): 98%; Activity (Mus musculus [11]): 177; ED50 (Rattus norvegicus [16]): 23.2 mg/kg; Inhibition (Rattus norvegicus [18]): 23%; TD50 (Rattus norvegicus [19]): > 100 mg/kg; Inhibition (Rattus norvegicus [20]): 0%; Activity (Mus musculus [21]): 190
Cc1cccc(C)c1NC(=O)N/N=C/c1cccc([N+](=O)[O-])c1 | 3 | 0% | 1 | 300 mg/kg | 30 mg/kg | 87.9 ug/100mg of tissue | 1 | 1 | 100 mg/kg | 79.8 ug/100mg of tissue | 88% | 3 | 147 min | 300 mg/kg | 0% | >4 | 300 mg/kg | Inhibition (Rattus norvegicus [26]): 0%; ADD (Rattus norvegicus [27]): 42 s; Score (Rattus norvegicus [28]): 1; ADD (Rattus norvegicus [29]): 52 s; Score (Rattus norvegicus [30]): 4; ADD (Rattus norvegicus [31]): 39 s; Inhibition (Rattus norvegicus [32]): 0%; Activity (Mus musculus [33]): 131; Inhibition (Rattus norvegicus [34]): 0%; Score (Rattus norvegicus [35]): 5; STY seizure (Mus musculus [36]): 100 mg/kg; ADD (Rattus norvegicus [37]): 59 s; Activity (Mus musculus [38]): 129; Score (Rattus norvegicus [39]): 5; TD50 (Rattus norvegicus [40]): > 120 mg/kg; Activity (Mus musculus [41]): 231; ED50 (Rattus norvegicus [42]): 29.7 mg/kg
